Results on one compound are retold here after article PMC11974063 (BMC Medicine, 2025).

Usually Kd stands for a measure of binding affinity in units of concentration. Read a high Kd as weaker binding.

For this experiment, the target named is Influenza HA2 protein. Type of experiment: binding.

With `COCCOC(=O)C1=C(C)NC(C)=C(C(=O)OC/C=C/c2ccccc2)C1c1cccc([N+](=O)[O-])c1` (stereo not shown) [cilnidipine], the Kd was 32 nM.
